Experiments:
[1] = Parallel artificial membrane permeability assay (PAMPA); type: in vitro ADME; conditions: GIT PAMPA Double Sink
Protocol: Simulated intestinal fluid (SIF) was prepared by dissolving 3 mM sodium taurocholate and 0.1% (w/v) pancreatin in phosphate buffer (final pH = 7.0). The solubility of acacetin was measured by adding excessive amounts of acacetin into glass vials containing 1.5 mL of water, pH 7.4 phosphate buffer, SGF, and SIF. […] The samples were centrifuged at 16,000× g for 5 min, and the supernatant was passed through a 0.20-μm syringe filter to remove excess acacetin. Further, the concentration of acacetin in the filtrate was determined using the LC-MS/MS method. […] Finally, the acacetin concentrations in the octanol and water layers were determined using the LC-MS/MS method. […] The PAMPA was conducted using a commercially available PAMPA kit (GIT PAMPA Double Sink; pION Inc., Massachusetts, MA, USA) according to the manufacturer's protocol. The permeability was calculated using pION PAMPA Explorer ver. 3.8 software (pION Inc., Massachusetts, MA, USA).

[2] = Maximum absorbable dose (MAD) estimation; parameters: species or system rat; conditions: oral dose 100 mg/kg, from measured SIF solubility
Excerpt: The PAMPA permeability values of acacetin seem to lie approximately in the middle of those of verapamil and ranitidine. […]. Rats have been recognized as a good animal model for predicting the GI absorption of drugs, particularly via passive diffusion, in humans. As a GI absorption prediction model, the maximum absorbable dose (MAD) can estimate a theoretical dose of a drug that can be absorbed across rat intestine, using solubility, intestinal volume, residence time, and intestinal permeability. […] Thus, the SIF solubility of acacetin measured in the present study could not represent an actual solubility of acacetin when it is dispersed in the dosing vehicle and subsequently administered into the GI fluids, which could result in the under-estimation of MAD. Alternatively, an in silico estimate of acacetin solubility in water can be used for the calculation of MAD.

Compound: COc1ccc(-c2cc(=O)c3c(O)cc(O)cc3o2)cc1 [acacetin, Acacetin]
- Papp [1]: 8.06 ± 0.91 ×10⁻⁶ cm/s
- MAD as portion of the orally administered dose [2]: 0.00361%

— PMC7911516, “Investigation of the Factors Responsible for the Poor Oral Bioavailability of Acacetin in Rats: Physicochemical and Biopharmaceutical Aspects” (Pharmaceutics, 2021)
